Patent US10821100B2, “Triazolone compounds as mPGES-1 inhibitors” (Glenmark Pharmaceuticals S.A., priority 2012, dated 2020)

Molecular target: T1, Recombinant human mPGES-1 (Homo sapiens, UniProt O14684)
T1 construct: made in house; host or cells: CHO cells (crude microsomal fractions)
T1 sequence (O14684 1-152): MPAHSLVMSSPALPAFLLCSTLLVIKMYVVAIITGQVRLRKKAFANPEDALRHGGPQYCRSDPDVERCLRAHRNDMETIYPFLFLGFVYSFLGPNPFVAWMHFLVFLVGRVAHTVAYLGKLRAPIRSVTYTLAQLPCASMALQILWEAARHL
Assay: In-vitro screening of mPGES-1 inhibitors (inhibition of PGE2 formation from PGH2, HTRF detection)
Type: biochemical
Settings: mPGES-1 enzyme; for inhibition at 1 µM: 1 μM test compound, read-out: Percentage inhibition at 1 μM; for inhibition at 10 µM: 10 μM test compound, read-out: Percentage inhibition at 10 μM; for IC50: class symbols
Procedure, shortened: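 PGH2-to-PGE2 isomerization run for 1 min with 15 μM PGH2 after 10 min compound preincubation with microsomal enzyme (40–60 μg/mL) and 2.5 mM GSH, pH buffer 0.1 M potassium phosphate with EDTA. Stannous chloride quench, HTRF PGE2 readout, IC50 fitted against uninhibited reaction.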

SMILES | inhibition at 1 µM (crude microsomal fractions) | inhibition at 10 µM (crude microsomal fractions) | IC50 | inhibition at 3 µM (3 μM test compound, crude microsomal fractions, read-out: Percentage inhibition at 3 μM)
COc1cc(-n2nc(-c3cc(CNC(=O)C4CC4)ccc3Cl)[nH]c2=O)ccc1C(=O)Nc1cccc(C(F)F)c1 [Example-68, 4-(3-(2-Chloro-5-(cyclopropanecarboxamidomethyl)phenyl)-5-oxo-4,5-dihydro-1H-1,2,4-triazol-1-yl)-N-(3-(difluoromethyl)phenyl)-2-methoxybenzamide] | 97.4% | 96.4% | < 50 nM | 
COc1cc(-n2nc(-c3cc(S(=O)(=O)NC4CC4)ccc3Cl)[nH]c2=O)ccc1C(=O)Nc1cccc(C(F)(F)F)c1 [Example-69, 4-(3-(2-Chloro-5-(N-cyclopropylsulfamoyl)phenyl)-5-oxo-4,5-dihydro-1H-1,2,4-triazol-1-yl)-2-methoxy-N-(3-(trifluoromethyl)phenyl)benzamide] | 86.4% | 89.1% | > 100 nM | 
CCn1c(-c2c(Cl)cccc2Cl)nn(-c2ccc(C(=O)Nc3cccc(C(F)(F)F)c3)c(OC)c2)c1=O [Example-70, 4-(3-(2,6-Dichlorophenyl)-4-ethyl-5-oxo-4,5-dihydro-1H-1,2,4-triazol-1-yl)-2-methoxy-N-(3-(trifluoromethyl)phenyl)benzamide] | 0.55% | 6.63% |  | 
CCn1c(-c2c(F)cccc2Cl)nn(-c2ccc(C#Cc3cccc(Cl)c3F)cc2)c1=O [Example-71] | 12.9% | 17.9% |  | 
O=C(Nc1cccc(C(F)(F)F)c1)c1ccc(-n2nc(-c3cc(CNC(=O)C4CC4)ccc3Cl)[nH]c2=O)cc1 [Example-72, 4-(3-(2-Chloro-5-(cyclopropanecarboxamidomethyl)phenyl)-5-oxo-4,5-dihydro-1H-1,2,4-triazol-1-yl)-N-(3-(trifluoromethyl)phenyl)benzamide] | 99.2% |  | < 50 nM | 99%
COc1cc(-n2nc(-c3c(Cl)cccc3C#N)[nH]c2=O)ccc1C(=O)Nc1ccc(F)c(C(F)(F)F)c1 [Example-73, 4-(3-(2-Chloro-6-cyanophenyl)-5-oxo-4,5-dihydro-1H-1,2,4-triazol-1-yl)-N-(4-fluoro-3-(trifluoromethyl)phenyl)-2-methoxybenzamide] | 92.4% | 92.4% | < 50 nM | 
COc1cc(-c2nn(-c3c(Cl)cccc3Cl)c(=O)[nH]2)ccc1C#Cc1cccc(Cl)c1F [Example-74] | 93.2% | 98.7% | 50 to 100 nM | 
COc1cc(-c2nn(-c3c(Cl)cccc3Cl)c(=O)[nH]2)ccc1C#Cc1ccc(C(F)(F)F)cc1Cl [Example-75, 3-(4-((2-Chloro-4-(trifluoromethyl)phenyl)ethynyl)-3-methoxyphenyl)-1-(2,6-dichlorophenyl)-1H-1,2,4-triazol-5(4H)-one] | 99.1% | 98.3% | < 50 nM | 
COc1cc(-c2nn(-c3c(Cl)cccc3Cl)c(=O)[nH]2)ccc1C(=O)Nc1cccc(C(F)(F)F)c1 [Example-76, 4-(1-(2,6-Dichlorophenyl)-5-oxo-4,5-dihydro-1H-1,2,4-triazol-3-yl)-2-methoxy-N-(3-(trifluoromethyl)phenyl)benzamide] | 95.6% | 95.4% | < 50 nM | 
COc1cc(-c2nn(-c3c(Cl)cccc3Cl)c(=O)[nH]2)ccc1C(=O)Nc1ccc(F)c(C(F)(F)F)c1 [Example-77, 4-(1-(2,6-Dichlorophenyl)-5-oxo-4,5-dihydro-1H-1,2,4-triazol-3-yl)-N-(4-fluoro-3-(trifluoromethyl)phenyl)-2-methoxybenzamide] | 93.2% | 98.1% | 50 to 100 nM | 
O=C(NCc1ccc(Cl)c(-n2nc(-c3ccc(C#Cc4cc(Cl)ccc4Cl)cc3F)[nH]c2=O)c1)C1CC1 [Example-78] | 99.9% | 99.9% | < 50 nM | 

More lines, now with the values ahead:

inhibition at 1 µM (crude microsomal fractions) | inhibition at 10 µM (crude microsomal fractions) | IC50 | inhibition at 3 µM (3 μM test compound, crude microsomal fractions, read-out: Percentage inhibition at 3 μM) | SMILES
99.1% | 97.1% | < 50 nM |  | O=C(NCc1ccc(Cl)c(-n2nc(-c3ccc(C#Cc4ccc(Cl)cc4F)cc3F)[nH]c2=O)c1)C1CC1 [Example-79, N-(4-Chloro-3-(3-(4-((4-chloro-2-fluorophenyl)ethynyl)-2-fluorophenyl)-5-oxo-4,5-dihydro-1H-1,2,4-triazol-1-yl)benzyl)cyclopropanecarboxamide]
97% | 97.1% | < 50 nM |  | O=C(NCc1ccc(Cl)c(-n2nc(-c3ccc(C#Cc4cccc(C(F)(F)F)c4)cc3F)[nH]c2=O)c1)C1CC1 [Example-80, N-(4-Chloro-3-(3-(2-fluoro-4-((3-(trifluoromethyl)phenyl)ethynyl)phenyl)-5-oxo-4,5-dihydro-1H-1,2,4-triazol-1-yl)benzyl)cyclopropanecarboxamide]
99.8% | 98% | < 50 nM |  | O=C(NCc1ccc(Cl)c(-n2nc(-c3ccc(C#Cc4cccc(Cl)c4F)cc3F)[nH]c2=O)c1)C1CC1 [Example-81, N-(4-Chloro-3-(3-(4-((3-chloro-2-fluorophenyl)ethynyl)-2-fluorophenyl)-5-oxo-4,5-dihydro-1H-1,2,4-triazol-1-yl)benzyl)cyclopropanecarboxamide]
98.3% | 99% | < 50 nM |  | O=C(NCc1ccc(Cl)c(-n2nc(-c3ccc(C#Cc4ccc(C(F)(F)F)cc4Cl)cc3F)[nH]c2=O)c1)C1CC1 [Example-82, N-(4-Chloro-3-(3-(4-((2-chloro-4-(trifluoromethyl)phenyl)ethynyl)-2-fluorophenyl)-5-oxo-4,5-dihydro-1H-1,2,4-triazol-1-yl)benzyl)cyclopropanecarboxamide]
97.5% | 99.9% | < 50 nM |  | CC(C)(C)C(=O)NCc1ccc(Cl)c(-c2nn(-c3ccc(Cl)c(Cl)c3)c(=O)[nH]2)c1F [Example-83, N-(4-Chloro-3-(1-(3,4-dichlorophenyl)-5-oxo-4,5-dihydro-1H-1,2,4-triazol-3-yl)-2-fluorobenzyl)pivalamide]
98.8% | 99.5% | < 50 nM |  | CC(C)(C)C(=O)NCc1ccc(Cl)c(-c2nn(-c3ccc(C(F)(F)F)cc3)c(=O)[nH]2)c1F [Example-84, N-(4-Chloro-2-fluoro-3-(5-oxo-1-(4-(trifluoromethyl)phenyl)-4,5-dihydro-1H-1,2,4-triazol-3-yl)benzyl)pivalamide]
22.6% | 69.3% |  |  | CC(C)(C)C(=O)NCc1ccc(Cl)c(-c2nn(-c3ccc(F)cc3F)c(=O)[nH]2)c1F [Example-85, N-(4-Chloro-j-(1-(2,4-difluorophenyl)-5-oxo-4,5-dihydro-1H-1,2,4-triazol-3-yl)-2-fluorobenzyl)pivalamide]
79.9% | 96.7% | > 100 nM |  | COc1ccc(-n2nc(-c3c(Cl)ccc(CNC(=O)C(C)(C)C)c3F)[nH]c2=O)cc1 [Example-86, N-(4-Chloro-2-fluoro-3-(1-(4-methoxyphenyl)-5-oxo-4,5-dihydro-1H-1,2,4-triazol-3-yl)benzyl)pivalamide]
93.4% | 99.2% | 50 to 100 nM |  | CC(C)(C)C(=O)NCc1ccc(Cl)c(-n2nc(-c3ccc(C(F)(F)F)cc3F)[nH]c2=O)c1F [Example-87, N-(4-Chloro-2-fluoro-3-(3-(2-fluoro-4-(trifluoromethyl)phenyl)-5-oxo-4,5-dihydro-1H-1,2,4-triazol-1-yl)benzyl)pivalamide]
